Results reported in ChEMBL document CHEMBL5532664, “Discovery, Optimization, and Evaluation of Potent and Selective DNA-PK Inhibitors in Combination with Chemotherapy or Radiotherapy for the Treatment of Malignancies” (J Med Chem, 2024).
The source made the active and inactive calls. No cut-off for these calls is given here.

What was measured:
HCT-116 [1] = assay: Inhibition of colony formation in human HCT-116 cells at […] preincubated with compound for 1 hr followed by exposure to 2 Gy gamma irradiation and measured after 7 days by crystal violet staining based chemiluminescence assay relative to control; format: functional; settings: HCT-116, light or radiation study, dose 0.25 µM, time 169 hrs
in vitro = settings: human, liver microsomes
[2] = molecular target: DNA-dependent protein kinase catalytic subunit (Homo sapiens, UniProt P78527)
Description: Inhibition of human DNA-PK incubated for 30 mins in presence of Mg/ATP by HTRF method

NCI-H460 = assay: Antitumor activity against human NCI-H460 cells xenografted in BALB/ c nude mouse assessed as inhibition of tumor growth at 100 mg/kg, po administered once daily with 2 Gy irradiation and measured upto 7 days by vernier caliper analysis; format: functional, organism-based; settings: time <= 7.0 day
HCT-116 [3] = assay: Inhibition of colony formation in human HCT-116 cells preincubated with compound for 1 hr followed by exposure to 2 Gy gamma irradiation and measured after 7 days by crystal violet staining based chemiluminescence assay; format: functional, cell-based; settings: HCT-116, light or radiation study
in vivo [4] = settings: Sprague-Dawley, rat, iv, 5 mg/kg
in vivo [5] = settings: Sprague-Dawley, rat, po, 5 mg/kg
in vivo [6] = settings: Sprague-Dawley, rat, po, 5 mg/kg; remark: listed apart in the source
in vivo [7] = settings: Sprague-Dawley, rat, po, 5 mg/kg; remark: listed apart in the source
in vivo [8] = settings: Sprague-Dawley, rat, iv, 5 mg/kg; remark: listed apart in the source
in vivo [9] = settings: Sprague-Dawley, rat, plasma, iv, 5 mg/kg
Description: Clearance in Sprague-Dawley rat plasma at 5 mg/kg, iv measured upto 24 hrs by LC-MS/MS analysis

in vivo [10] = settings: Sprague-Dawley, rat, po, 5 mg/kg; remark: listed apart in the source
in vivo [11] = settings: Sprague-Dawley, rat, plasma, po, 5 mg/kg
Description: Clearance in Sprague-Dawley rat plasma at 5 mg/kg, po measured upto 24 hrs by LC-MS/MS analysis

in vivo [12] = settings: Sprague-Dawley, rat, iv, 5 mg/kg; remark: listed apart in the source

Sequence of DNA-dependent protein kinase catalytic subunit (P78527 whole entry): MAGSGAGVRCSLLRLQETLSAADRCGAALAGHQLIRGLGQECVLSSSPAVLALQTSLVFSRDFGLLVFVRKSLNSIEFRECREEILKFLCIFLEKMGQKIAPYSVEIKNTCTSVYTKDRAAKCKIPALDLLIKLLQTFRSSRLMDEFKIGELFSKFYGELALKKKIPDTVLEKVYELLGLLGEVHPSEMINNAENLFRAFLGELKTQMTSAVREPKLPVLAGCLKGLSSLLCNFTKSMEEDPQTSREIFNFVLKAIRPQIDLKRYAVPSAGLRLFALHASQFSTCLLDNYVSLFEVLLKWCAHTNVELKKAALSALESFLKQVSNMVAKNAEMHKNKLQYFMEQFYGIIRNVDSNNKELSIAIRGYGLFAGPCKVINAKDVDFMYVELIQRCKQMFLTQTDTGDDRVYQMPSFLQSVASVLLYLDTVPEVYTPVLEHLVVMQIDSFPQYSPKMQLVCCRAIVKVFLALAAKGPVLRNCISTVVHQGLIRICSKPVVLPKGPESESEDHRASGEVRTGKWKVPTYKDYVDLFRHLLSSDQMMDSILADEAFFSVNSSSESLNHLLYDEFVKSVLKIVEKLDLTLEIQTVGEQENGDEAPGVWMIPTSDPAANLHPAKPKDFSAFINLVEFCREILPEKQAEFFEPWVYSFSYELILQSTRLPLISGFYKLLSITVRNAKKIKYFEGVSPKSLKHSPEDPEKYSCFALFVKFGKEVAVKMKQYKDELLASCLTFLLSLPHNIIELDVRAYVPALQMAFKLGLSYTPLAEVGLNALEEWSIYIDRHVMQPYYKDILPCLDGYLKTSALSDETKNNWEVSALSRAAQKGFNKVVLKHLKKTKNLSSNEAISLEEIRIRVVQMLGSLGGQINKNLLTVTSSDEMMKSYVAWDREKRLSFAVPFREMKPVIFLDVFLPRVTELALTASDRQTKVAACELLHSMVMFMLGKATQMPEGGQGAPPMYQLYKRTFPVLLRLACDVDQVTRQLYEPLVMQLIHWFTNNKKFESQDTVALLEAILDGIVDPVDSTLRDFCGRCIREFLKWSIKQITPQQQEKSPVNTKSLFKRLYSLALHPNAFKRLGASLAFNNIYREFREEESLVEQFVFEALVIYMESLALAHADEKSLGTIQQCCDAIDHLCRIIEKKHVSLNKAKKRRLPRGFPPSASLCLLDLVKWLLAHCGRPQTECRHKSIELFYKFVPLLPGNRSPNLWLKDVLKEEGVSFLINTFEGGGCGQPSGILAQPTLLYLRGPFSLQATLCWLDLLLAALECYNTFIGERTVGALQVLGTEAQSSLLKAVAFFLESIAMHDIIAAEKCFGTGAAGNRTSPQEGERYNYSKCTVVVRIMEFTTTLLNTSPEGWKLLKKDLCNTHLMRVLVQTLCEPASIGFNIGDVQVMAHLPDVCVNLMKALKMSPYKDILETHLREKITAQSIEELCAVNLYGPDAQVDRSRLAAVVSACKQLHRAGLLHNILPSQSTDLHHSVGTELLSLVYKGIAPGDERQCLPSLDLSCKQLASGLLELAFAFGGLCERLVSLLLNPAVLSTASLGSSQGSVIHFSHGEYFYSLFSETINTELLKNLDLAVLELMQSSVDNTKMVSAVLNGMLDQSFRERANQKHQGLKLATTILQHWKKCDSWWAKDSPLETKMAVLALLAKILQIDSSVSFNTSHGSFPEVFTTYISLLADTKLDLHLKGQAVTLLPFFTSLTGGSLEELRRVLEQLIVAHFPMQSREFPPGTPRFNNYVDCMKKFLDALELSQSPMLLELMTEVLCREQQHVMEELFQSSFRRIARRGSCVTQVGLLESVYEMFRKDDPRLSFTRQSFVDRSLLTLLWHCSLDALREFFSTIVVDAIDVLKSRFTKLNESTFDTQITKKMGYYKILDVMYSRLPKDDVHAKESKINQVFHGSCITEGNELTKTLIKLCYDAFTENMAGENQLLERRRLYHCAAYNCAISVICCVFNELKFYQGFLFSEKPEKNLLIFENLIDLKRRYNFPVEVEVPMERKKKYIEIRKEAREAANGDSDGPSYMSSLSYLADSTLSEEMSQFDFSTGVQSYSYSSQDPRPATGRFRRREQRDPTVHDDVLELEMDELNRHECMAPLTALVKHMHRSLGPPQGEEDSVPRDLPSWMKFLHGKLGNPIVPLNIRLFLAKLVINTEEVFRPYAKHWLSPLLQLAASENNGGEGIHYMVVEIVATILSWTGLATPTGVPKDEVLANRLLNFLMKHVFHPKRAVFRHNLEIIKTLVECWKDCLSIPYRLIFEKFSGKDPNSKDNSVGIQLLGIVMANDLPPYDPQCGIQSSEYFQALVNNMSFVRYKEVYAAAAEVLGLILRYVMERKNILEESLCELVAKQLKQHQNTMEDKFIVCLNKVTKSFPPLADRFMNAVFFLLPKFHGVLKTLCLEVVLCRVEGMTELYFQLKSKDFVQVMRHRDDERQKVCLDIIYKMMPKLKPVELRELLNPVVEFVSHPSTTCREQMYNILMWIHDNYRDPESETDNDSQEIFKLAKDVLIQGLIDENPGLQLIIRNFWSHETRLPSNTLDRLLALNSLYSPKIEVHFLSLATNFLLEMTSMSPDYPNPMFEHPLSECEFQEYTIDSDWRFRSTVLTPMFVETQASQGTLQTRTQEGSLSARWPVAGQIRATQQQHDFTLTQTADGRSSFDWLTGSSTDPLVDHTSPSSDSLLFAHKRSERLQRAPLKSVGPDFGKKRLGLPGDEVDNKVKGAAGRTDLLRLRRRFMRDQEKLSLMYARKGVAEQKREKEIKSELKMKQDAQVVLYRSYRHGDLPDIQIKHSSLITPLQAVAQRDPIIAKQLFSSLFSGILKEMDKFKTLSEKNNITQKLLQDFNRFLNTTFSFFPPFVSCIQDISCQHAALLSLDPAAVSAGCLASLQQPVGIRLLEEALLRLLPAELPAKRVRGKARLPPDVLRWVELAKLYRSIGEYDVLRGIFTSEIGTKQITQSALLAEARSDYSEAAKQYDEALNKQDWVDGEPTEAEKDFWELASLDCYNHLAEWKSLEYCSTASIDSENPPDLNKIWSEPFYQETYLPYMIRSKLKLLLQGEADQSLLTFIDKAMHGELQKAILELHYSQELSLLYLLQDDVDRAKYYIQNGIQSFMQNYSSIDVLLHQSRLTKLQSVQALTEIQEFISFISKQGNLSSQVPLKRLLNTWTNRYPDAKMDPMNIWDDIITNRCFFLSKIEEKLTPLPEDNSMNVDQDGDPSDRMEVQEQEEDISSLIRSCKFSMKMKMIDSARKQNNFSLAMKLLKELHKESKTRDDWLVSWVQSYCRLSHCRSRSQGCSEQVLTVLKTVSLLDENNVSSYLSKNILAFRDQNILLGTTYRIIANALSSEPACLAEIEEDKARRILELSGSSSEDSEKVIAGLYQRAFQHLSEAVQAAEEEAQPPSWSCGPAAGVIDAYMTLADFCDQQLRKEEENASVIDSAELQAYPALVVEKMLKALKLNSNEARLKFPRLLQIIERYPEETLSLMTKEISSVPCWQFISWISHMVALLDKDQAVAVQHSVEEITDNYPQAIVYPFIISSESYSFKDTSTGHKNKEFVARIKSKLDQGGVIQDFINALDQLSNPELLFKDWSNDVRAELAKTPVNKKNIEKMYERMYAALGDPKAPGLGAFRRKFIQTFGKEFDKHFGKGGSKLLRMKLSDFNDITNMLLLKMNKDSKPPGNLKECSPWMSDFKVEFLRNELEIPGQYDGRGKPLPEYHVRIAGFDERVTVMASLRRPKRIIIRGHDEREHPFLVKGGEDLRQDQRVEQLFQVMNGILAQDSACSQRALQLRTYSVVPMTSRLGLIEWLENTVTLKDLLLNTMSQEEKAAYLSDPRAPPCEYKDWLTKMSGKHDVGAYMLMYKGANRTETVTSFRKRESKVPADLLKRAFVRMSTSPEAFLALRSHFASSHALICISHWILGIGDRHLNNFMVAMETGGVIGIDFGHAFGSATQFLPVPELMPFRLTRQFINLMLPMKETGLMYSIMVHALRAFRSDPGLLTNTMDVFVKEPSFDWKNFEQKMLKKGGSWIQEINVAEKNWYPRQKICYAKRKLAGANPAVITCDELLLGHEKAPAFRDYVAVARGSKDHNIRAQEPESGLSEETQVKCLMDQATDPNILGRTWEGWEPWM

Row | SMILES | inhibition at […] (HCT-116 [1]) [%] | half-life at 5 min, 1 µM (in vitro) [h] | IC50 [2] [nM] | further results
1 | Cc1cc(-c2cncnc2)ncc1Nc1ncc2c(n1)n(C1CCOCC1)c(=O)n2C | 22.9 | – | – | –
2 | Cc1cc(-c2cnn(C3CC3)c2)ncc1Nc1ncc2c(n1)n(C1CCOCC1)c(=O)n2C | 63.3 | – | – | –
3 | Cc1cc(-c2ccoc2)ncc1Nc1ncc2c(n1)n(C1CCOCC1)c(=O)n2C | 99.8 | 0.213 | – | –
4 | Cn1c(=O)n(C2CCOCC2)c2nc(N3CCc4cc(C(F)(F)F)ccc43)ncc21 | 41 | – | – | –
5 | Cc1ccc(-c2cc(C)c(Nc3ncc4c(n3)n(C3CCOCC3)c(=O)n4C)cn2)o1 | 76.7 | 0.642 | – | –
6 | Cc1cc(-c2cn[nH]c2)ncc1Nc1ncc2c(n1)n(C1CCOCC1)c(=O)n2C | 86.7 | 0.963 | 0.4 | –
7 | Cc1cc(-c2cnn(C)c2)ccc1Nc1ncc2c(n1)n(C1CCOCC1)c(=O)n2C | 58.5 | – | – | –
8 | Cc1nc(-c2cnn(C)c2)ccc1Nc1ncc2c(n1)n(C1CCOCC1)c(=O)n2C | 23.3 | – | – | –
9 | Cc1cc(-c2coc(C=O)c2)ncc1Nc1ncc2c(n1)n(C1CCOCC1)c(=O)n2C | 96.9 | 0.235 | – | –
10 | Cc1cc(-c2cnn(C)c2C)ncc1Nc1ncc2c(n1)n(C1CCOCC1)c(=O)n2C | 28 | – | – | –
11 | COC(=O)c1ccc2c(c1)CCN2c1ncc2c(n1)n(C1CCOCC1)c(=O)n2C | 48.1 | – | 5 | –
12 | COc1cncc(-c2ccc(Nc3ncc4c(n3)n(C3CCOCC3)c(=O)n4C)c(C)n2)c1 | – | – | 5.3 | –
13 | COc1ccc(-c2ccc(Nc3ncc4c(n3)n(C3CCOCC3)c(=O)n4C)c(C)n2)cc1OC | 28.3 | – | – | –
14 | CC(=O)N1CCC(n2c(=O)n(C)c3cnc(Nc4cnc(-c5cnn(C)c5)cc4C)nc32)CC1 | 14.7 | – | 1 | –
15 | Cc1cc(-c2cnn(C)c2)ncc1Nc1ncc2c(n1)n(C1CCN(S(=O)(=O)C(F)(F)F)CC1)c(=O)n2C | 86.7 | – | 5 | –
16 | Cc1nc(-c2cn[nH]c2)ccc1Nc1ncc2c(n1)n(C1CCOCC1)c(=O)n2C | 27.7 | 1.2 | 25 | –
17 | Cc1cc(-c2cnn(C)c2)ncc1Nc1ncc2c(n1)n(C1CCN(C(=O)[C@@H]3C[C@H]3F)CC1)c(=O)n2C | 28.3 | – | – | –
18 | Cc1cc(-c2c(C)nn(C)c2C)ncc1Nc1ncc2c(n1)n(C1CCOCC1)c(=O)n2C | 22.9 | – | – | –
19 | Cc1cc(-c2cnn(C(C)C)c2)ncc1Nc1ncc2c(n1)n(C1CCOCC1)c(=O)n2C | 12.6 | – | – | –
20 | COc1ccc2c(c1)CCN2c1ncc2c(n1)n(C1CCOCC1)c(=O)n2C | 86.1 | 0.138 | 6 | –

Row | SMILES | inhibition at […] (HCT-116 [1]) [%] | half-life at 5 min, 1 µM (in vitro) [h] | IC50 [2] [nM] | further results
21 | Cc1cc(-c2ccco2)ncc1Nc1ncc2c(n1)n(C1CCOCC1)c(=O)n2C | 99.7 | – | – | –
22 | Cc1cc(-c2cnn(C)c2)ncc1Nc1ncc2c(n1)n(C1CCCCC1C)c(=O)n2C (stereo not drawn) | 86.7 | – | 9 | –
23 | Cc1cc(-c2cnn(C)c2)ncc1Nc1ncc2c(n1)n(C1CCN(C(=O)C3CC3)CC1)c(=O)n2C | 66.9 | – | 3 | –
24 | Cc1cc(-c2cnoc2)ncc1Nc1ncc2c(n1)n(C1CCOCC1)c(=O)n2C | 32.8 | – | – | –
25 | COc1ccc(-c2ccc(Nc3ncc4c(n3)n(C3CCOCC3)c(=O)n4C)c(C)n2)cn1 | 29.9 | – | 161 | –
26 | Cc1cc(-c2cccnc2)ncc1Nc1ncc2c(n1)n(C1CCOCC1)c(=O)n2C | 97.4 | – | – | –
27 | Cn1c(=O)n(C2CCOCC2)c2nc(N3CCc4ccccc43)ncc21 | -11.6 | 1.2 | – | –
28 | Cn1c(=O)n(C2CCOCC2)c2nc(N3CCc4cc(C#N)ccc43)ncc21 | 84.7 | 0.352 | 13 | –
29 | Cc1cc(-c2cn(C)nc2C)ncc1Nc1ncc2c(n1)n(C1CCOCC1)c(=O)n2C | 77.4 | 128 | 6 | –
30 | Cc1cc(-c2cnn(C)c2)cnc1Nc1ncc2c(n1)n(C1CCOCC1)c(=O)n2C | -0.2 | – | – | –
31 | COc1cc2c(cc1OC)N(c1ncc3c(n1)n(C1CCOCC1)c(=O)n3C)CC2 | 89.8 | – | – | –
32 | Cc1cc(-c2cnn(C)c2)ncc1Nc1ncc2c(n1)n(C1CCN(S(=O)(=O)C3CC3)CC1)c(=O)n2C | 84.9 | 3.04 | 2 | –
33 | Cc1cc(-c2cnn(C)c2)ncc1Nc1ncc2c(n1)n(C1CCN(C(=O)C3CC3(F)F)CC1)c(=O)n2C (stereo not drawn) | 47.3 | – | 12 | –
34 | Cn1c(=O)n(C2CCOCC2)c2nc(Nc3ccc(-c4ccc5c(c4)OCO5)nc3)ncc21 | 85.8 | – | – | –
35 | COc1cc(-c2cc(C)c(Nc3ncc4c(n3)n(C3CCOCC3)c(=O)n4C)cn2)cc(OC)c1OC | -11.4 | – | – | –
36 | Cc1cc(-c2cnn(C)c2)ncc1Nc1ncc2c(n1)n(C1CCN(S(C)(=O)=O)CC1)c(=O)n2C | 30.4 | – | 1 | –
37 | Cc1nc(-c2cnn(C)c2)ncc1Nc1ncc2c(n1)n(C1CCOCC1)c(=O)n2C | 63.2 | – | – | –
38 | Cc1cc(-c2c(C)noc2C)ncc1Nc1ncc2c(n1)n(C1CCOCC1)c(=O)n2C | 25 | – | – | –
39 | Cc1cc(-c2cnn(C)c2)ncc1Nc1ncc2c(n1)n(CC1CCOCC1)c(=O)n2C | 42.8 | – | – | –
40 | Cc1ccc(-c2cnn(C)c2)cc1Nc1ncc2c(n1)n(C1CCOCC1)c(=O)n2C | 98 | 3.04 | 2 | –

Row | SMILES | inhibition at […] (HCT-116 [1]) [%] | half-life at 5 min, 1 µM (in vitro) [h] | IC50 [2] [nM] | further results
41 | Cc1cc(-c2ccnn2C)ncc1Nc1ncc2c(n1)n(C1CCOCC1)c(=O)n2C | 95 | 14.4 | 8 | –
42 | COc1ncc(-c2cc(C)c(Nc3ncc4c(n3)n(C3CCOCC3)c(=O)n4C)cn2)cn1 | 34 | – | – | –
43 | Cc1cc(-c2cn(C)nc2C(F)(F)F)ncc1Nc1ncc2c(n1)n(C1CCOCC1)c(=O)n2C | 63.9 | 1.99 | 4 | –
44 | Cc1cc(-c2ccsc2)ncc1Nc1ncc2c(n1)n(C1CCOCC1)c(=O)n2C | 99.8 | 2.51 | 0.8 | Activity (NCI-H460): Active; IC50 (HCT-116 [3]): 3.76 nM
45 | Cc1cc(-c2cnn(C)c2)ncc1Nc1ncc2c(n1)n([C@@]13C[C@@H]4C[C@@](C)(C[C@@](C)(C4)C1)C3)c(=O)n2C | 83.9 | 0.0373 | – | –
46 | Cc1cc(-c2ncn(C)n2)ccc1Nc1ncc2c(n1)n(C1CCOCC1)c(=O)n2C | 56.1 | – | 13 | –
47 | Cc1cc(-c2cnn(C)c2)ncc1Nc1ncc2c(n1)n(C1CCNCC1)c(=O)n2C | 46.8 | – | 0.9 | –
48 | Cn1c(=O)n(C2CCOCC2)c2nc(N3CCc4cc(S(C)(=O)=O)ccc43)ncc21 | 5.8 | – | – | –
49 | Cc1ncc(-c2cnn(C)c2)cc1Nc1ncc2c(n1)n(C1CCOCC1)c(=O)n2C | 74.3 | – | 10 | –
50 | Cn1cc(-c2ccc3c(c2)CCN3c2ncc3c(n2)n(C2CCOCC2)c(=O)n3C)cn1 | 97.6 | 2.51 | 8 | –
51 | Cc1cc(-c2cnn(C)c2)ncc1Nc1ncc2c(n1)n([C@H]1CCOC1)c(=O)n2C | 90.7 | 28.9 | 6 | –
52 | Cn1c(=O)n(C2CCOCC2)c2nc(N3CCc4cc(F)c(F)cc43)ncc21 | 8.2 | – | – | –
53 | Cc1cc(-c2cccs2)ncc1Nc1ncc2c(n1)n(C1CCOCC1)c(=O)n2C | 97.9 | 1.96 | 0.1 | Cmax at 24 h (in vivo [4]): 23.3 ng/mL; Activity (NCI-H460): Active; half-life at 24 h (in vivo [5]): 7.34 h; AUC(0-t) at 24 h (in vivo [6]): 277 ng·h/mL; Cmax at 24 h (in vivo [7]): 23.8 ng/mL; half-life at 24 h (in vivo [8]): 3.45 h; clearance at 24 h (in vivo [9]): 306 mL/min/kg; bioavailability at 24 h (in vivo [10]): 99.6%; IC50 (HCT-116 [3]): 15.2 nM; CL/F at 24 h (in vivo [11]): 204 mL/min/kg; AUC(0-t) at 24 h (in vivo [12]): 278 ng·h/mL
54 | Cc1cc(-c2ccc3c(c2)OCCO3)ncc1Nc1ncc2c(n1)n(C1CCOCC1)c(=O)n2C | 60 | – | – | –
55 | Cc1cnc(-c2cnn(C)c2)cc1Nc1ncc2c(n1)n(C1CCOCC1)c(=O)n2C | 99.4 | 4.81 | – | Cmax at 24 h (in vivo [4]): 1320 ng/mL; Activity (NCI-H460): Active; half-life at 24 h (in vivo [5]): 11.6 h; AUC(0-t) at 24 h (in vivo [6]): 6470 ng·h/mL; Cmax at 24 h (in vivo [7]): 406 ng/mL; half-life at 24 h (in vivo [8]): 7.08 h; clearance at 24 h (in vivo [9]): 11.7 mL/min/kg; bioavailability at 24 h (in vivo [10]): 88.5%; IC50 (HCT-116 [3]): 27.5 nM; CL/F at 24 h (in vivo [11]): 16 mL/min/kg; AUC(0-t) at 24 h (in vivo [12]): 7300 ng·h/mL
56 | Cn1c(=O)n(C2CCOCC2)c2nc(N3CCc4ccc([N+](=O)[O-])cc43)ncc21 | 12.5 | – | – | –
57 | Cc1cc(-c2cnn(C)c2)ncc1Nc1ncc2c(n1)n(C1CC1)c(=O)n2C | 53.1 | – | – | –
58 | Cc1nc(-c2ccnn2C)ccc1Nc1ncc2c(n1)n(C1CCOCC1)c(=O)n2C | – | – | 9.6 | –
59 | CC(=O)c1ccc2c(c1)CCN2c1ncc2c(n1)n(C1CCOCC1)c(=O)n2C | 32.6 | – | 1 | –
60 | Cc1cc(-c2cccc(S(C)(=O)=O)c2)ncc1Nc1ncc2c(n1)n(C1CCOCC1)c(=O)n2C | 19.3 | – | – | –
